In US4971965A, “Antibiotics TAN-1057” (Takeda Chemical Industries, Ltd., priority 1988, dated 1990):
Converted amounts (≈) assume the structure as drawn. Structures can show the parent of a compound that is named as a salt. Where two headings read alike, the source gives them in different places.

Columns and labels:
Acidity or basicity = type: physicochemical
Solubility = type: physicochemical
[1] = test system: Staphylococcus aureus N176-6; assay: Antibacterial activity against clinically isolated S. aureus (agar dilution MIC, Table 2); type: cell-based; settings: Staphylococcus aureus, N1766
Method: (§1) DMPPC: Methicillin, KM: Kanamycin, GM: Gentamycin, EM: Erythromycin (Note
(§2) Determined by the agar dilution method. Medium: Mueller Hinton medium
(§3) (Difco, USA) Inoculum Size: 10^6 CFU/ml, 37° C.

[2] = test system: Staphylococcus aureus N121; assay: as above; type: cell-based; settings: Staphylococcus aureus
Method: as §1, §2, §3

Staphylococcus aureus C3 = assay: as above; type: cell-based; settings: Staphylococcus aureus
Method: as §1, §2, §3

[3] = test system: Staphylococcus aureus TS-65; assay: as above; type: cell-based; settings: Staphylococcus aureus, TS65
Method: as §1, §2, §3

[4] = test system: Staphylococcus aureus N176-3; assay: as above; type: cell-based; settings: Staphylococcus aureus, N1763
Method: as §1, §2, §3

[5] = test system: Staphylococcus aureus N262; assay: as above; type: cell-based; settings: Staphylococcus aureus
Method: as §1, §2, §3

[6] = test system: Staphylococcus aureus N326; assay: as above; type: cell-based; settings: Staphylococcus aureus
Method: as §1, §2, §3

[7] = test system: Staphylococcus aureus N176; assay: as above; type: cell-based; settings: Staphylococcus aureus
Method: as §1, §2, §3

[8] = test system: Staphylococcus aureus N51; assay: as above; type: cell-based; settings: Staphylococcus aureus
Method: as §1, §2, §3

[9] = test system: Staphylococcus aureus N247; assay: as above; type: cell-based; settings: Staphylococcus aureus
Method: as §1, §2, §3

[10] = test system: Staphylococcus aureus N237; assay: as above; type: cell-based; settings: Staphylococcus aureus
Method: as §1, §2, §3

Staphylococcus aureus C4 = assay: as above; type: cell-based; settings: Staphylococcus aureus
Method: as §1, §2, §3

[11] = test system: Staphylococcus aureus C10; assay: as above; type: cell-based; settings: Staphylococcus aureus
Method: as §1, §2, §3

[12] = test system: Staphylococcus aureus N235; assay: as above; type: cell-based; settings: Staphylococcus aureus
Method: as §1, §2, §3

[13] = test system: Staphylococcus aureus FDA 209P; assay: as above; type: cell-based; settings: Staphylococcus aureus, FDA209P
Method: as §1, §2, §3

[14] = test system: Staphylococcus aureus N83; assay: as above; type: cell-based; settings: Staphylococcus aureus
Method: as §1, §2, §3

[15] = test system: Staphylococcus aureus N129; assay: as above; type: cell-based; settings: Staphylococcus aureus
Method: as §1, §2, §3

[16] = test system: Staphylococcus aureus N247-16; assay: as above; type: cell-based; settings: Staphylococcus aureus, N24716
Method: as §1, §2, §3

[17] = test system: Staphylococcus aureus N91; assay: as above; type: cell-based; settings: Staphylococcus aureus
Method: as §1, §2, §3

[18] = test system: Staphylococcus aureus TST-75; assay: as above; type: cell-based; settings: Staphylococcus aureus, TST75
Method: as §1, §2, §3

Staphylococcus aureus C7 = assay: as above; type: cell-based; settings: Staphylococcus aureus
Method: as §1, §2, §3

[19] = test system: Staphylococcus aureus N64; assay: as above; type: cell-based; settings: Staphylococcus aureus
Method: as §1, §2, §3

[20] = test system: Staphylococcus aureus N267; assay: as above; type: cell-based; settings: Staphylococcus aureus
Method: as §1, §2, §3

[21] = test system: Staphylococcus aureus N28; assay: as above; type: cell-based; settings: Staphylococcus aureus
Method: as §1, §2, §3

[22] = test system: Staphylococcus aureus N62; assay: as above; type: cell-based; settings: Staphylococcus aureus
Method: as §1, §2, §3

Staphylococcus aureus N8 = assay: as above; type: cell-based; settings: Staphylococcus aureus
Method: as §1, §2, §3

[23] = test system: Staphylococcus aureus N247-21; assay: as above; type: cell-based; settings: Staphylococcus aureus, N24721
Method: as §1, §2, §3

CN(C(=O)C[C@@H](N)CCCNC(=N)N)[C@H]1CNC(NC(N)=O)=NC1=O [TAN-1057A trihydrochloride]
Acidity or basicity (Acidity or basicity): neutral | Solubility (Solubility; acetone): Sparingly soluble | Solubility (Solubility; diethyl ether): Sparingly soluble | Solubility (Solubility; dimethylsulfoxide): Soluble | Solubility (Solubility; ethyl acetate): Sparingly soluble | Solubility (Solubility; methanol): Soluble | Solubility (Solubility; water): Readily soluble

COc1cccc(OC)c1C(=O)N[C@@H]1C(=O)N2[C@@H]1SC(C)(C)[C@@H]2C(=O)O [DMPPC, Methicillin]
MIC ([1]; strain N176-6, agar dilution, Mueller Hinton medium, 10^6 CFU/ml, read-out: MIC): 200 µg/mL (≈ 526 µM) | MIC ([2]; strain N121, agar dilution, Mueller Hinton medium, 10^6 CFU/ml, read-out: MIC): 50 µg/mL (≈ 131 µM) | MIC (Staphylococcus aureus C3; strain C3, agar dilution, Mueller Hinton medium, 10^6 CFU/ml, read-out: MIC): 50 µg/mL (≈ 131 µM) | MIC ([3]; strain TS-65, agar dilution, Mueller Hinton medium, 10^6 CFU/ml, read-out: MIC): > 1600 µg/mL | MIC ([4]; strain N176-3, agar dilution, Mueller Hinton medium, 10^6 CFU/ml, read-out: MIC): 50 µg/mL (≈ 131 µM) | MIC ([5]; strain N262, agar dilution, Mueller Hinton medium, 10^6 CFU/ml, read-out: MIC): 100 µg/mL (≈ 263 µM) | MIC ([6]; strain N326, agar dilution, Mueller Hinton medium, 10^6 CFU/ml, read-out: MIC): 1600 µg/mL (≈ 4210 µM) | MIC ([7]; strain N176, agar dilution, Mueller Hinton medium, 10^6 CFU/ml, read-out: MIC): 12.5 µg/mL (≈ 32.9 µM) | MIC ([8]; strain N51, agar dilution, Mueller Hinton medium, 10^6 CFU/ml, read-out: MIC): 1.56 µg/mL (≈ 4.1 µM) | MIC ([9]; strain N247, agar dilution, Mueller Hinton medium, 10^6 CFU/ml, read-out: MIC): 50 µg/mL (≈ 131 µM) | MIC ([10]; strain N237, agar dilution, Mueller Hinton medium, 10^6 CFU/ml, read-out: MIC): 20 µg/mL (≈ 52.6 µM) | MIC (Staphylococcus aureus C4; strain C4, agar dilution, Mueller Hinton medium, 10^6 CFU/ml, read-out: MIC): 50 µg/mL (≈ 131 µM) | MIC ([11]; strain C10, agar dilution, Mueller Hinton medium, 10^6 CFU/ml, read-out: MIC): 800 µg/mL (≈ 2100 µM) | MIC ([12]; strain N235, agar dilution, Mueller Hinton medium, 10^6 CFU/ml, read-out: MIC): 1.56 µg/mL (≈ 4.1 µM) | MIC ([13]; strain FDA 209P, agar dilution, Mueller Hinton medium, 10^6 CFU/ml, read-out: MIC): 1.56 µg/mL (≈ 4.1 µM) | MIC ([14]; strain N83, agar dilution, Mueller Hinton medium, 10^6 CFU/ml, read-out: MIC): 3.13 µg/mL (≈ 8.23 µM) | MIC ([15]; strain N129, agar dilution, Mueller Hinton medium, 10^6 CFU/ml, read-out: MIC): 400 µg/mL (≈ 1050 µM) | MIC ([16]; strain N247-16, agar dilution, Mueller Hinton medium, 10^6 CFU/ml, read-out: MIC): > 1600 µg/mL | MIC ([17]; strain N91, agar dilution, Mueller Hinton medium, 10^6 CFU/ml, read-out: MIC): 1.56 µg/mL (≈ 4.1 µM) | MIC ([18]; strain TST-75, agar dilution, Mueller Hinton medium, 10^6 CFU/ml, read-out: MIC): 12.5 µg/mL (≈ 32.9 µM) | MIC (Staphylococcus aureus C7; strain C7, agar dilution, Mueller Hinton medium, 10^6 CFU/ml, read-out: MIC): 50 µg/mL (≈ 131 µM) | MIC ([19]; strain N64, agar dilution, Mueller Hinton medium, 10^6 CFU/ml, read-out: MIC): 1600 µg/mL (≈ 4210 µM) | MIC ([20]; strain N267, agar dilution, Mueller Hinton medium, 10^6 CFU/ml, read-out: MIC): 100 µg/mL (≈ 263 µM) | MIC ([21]; strain N28, agar dilution, Mueller Hinton medium, 10^6 CFU/ml, read-out: MIC): 1600 µg/mL (≈ 4210 µM) | MIC ([22]; strain N62, agar dilution, Mueller Hinton medium, 10^6 CFU/ml, read-out: MIC): 3.13 µg/mL (≈ 8.23 µM) | MIC (Staphylococcus aureus N8; strain N8, agar dilution, Mueller Hinton medium, 10^6 CFU/ml, read-out: MIC): 1.56 µg/mL (≈ 4.1 µM) | MIC ([23]; strain N247-21, agar dilution, Mueller Hinton medium, 10^6 CFU/ml, read-out: MIC): 200 µg/mL (≈ 526 µM)

NC[C@H]1O[C@H](O[C@H]2[C@H](O)[C@@H](O[C@H]3O[C@H](CO)[C@@H](O)[C@H](N)[C@H]3O)[C@H](N)C[C@@H]2N)[C@H](O)[C@@H](O)[C@@H]1O [KM, Kanamycin]
MIC [1]: 1.56 µg/mL (≈ 3.22 µM) | MIC ([2]; N121): > 100 µg/mL | MIC (Staphylococcus aureus C3; C3): > 100 µg/mL | MIC [3]: > 100 µg/mL | MIC [4]: 1.56 µg/mL (≈ 3.22 µM) | MIC ([5]; N262): > 100 µg/mL | MIC ([6]; N326): > 100 µg/mL | MIC ([7]; N176): 3.13 µg/mL (≈ 6.46 µM) | MIC ([8]; N51): 3.13 µg/mL (≈ 6.46 µM) | MIC ([9]; N247): > 100 µg/mL | MIC ([10]; N237): > 100 µg/mL | MIC (Staphylococcus aureus C4; C4): > 100 µg/mL | MIC ([11]; C10): > 100 µg/mL | MIC ([12]; N235): 100 µg/mL (≈ 206 µM) | MIC [13]: 0.39 µg/mL (≈ 0.805 µM) | MIC ([14]; N83): > 100 µg/mL | MIC ([15]; N129): > 100 µg/mL | MIC [16]: > 100 µg/mL | MIC ([17]; N91): > 100 µg/mL | MIC [18]: > 100 µg/mL | MIC (Staphylococcus aureus C7; C7): > 100 µg/mL | MIC ([19]; N64): > 100 µg/mL | MIC ([20]; N267): > 100 µg/mL | MIC ([21]; N28): > 100 µg/mL | MIC ([22]; N62): 25 µg/mL (≈ 51.6 µM) | MIC (Staphylococcus aureus N8; N8): 1.56 µg/mL (≈ 3.22 µM) | MIC [23]: > 100 µg/mL
